For assay [1], the system named is T-Rex 293 cell line SC3 cells lacking increased expression of androgen receptor protein. In words: Cellular growth inhibition assay, T-Rex 293 SC3 cells without doxycycline (CellTiter-Glo, 72 hours). As to conditions: 72 h, T-Rex 293 cell line SC3 cells not exposed to doxycycline (lacking increased androgen receptor expression). The format is cell-based. The method in brief:
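Growth inhibition is measured in an inducible AR-expressing T-Rex 293 clone, SC3, cultured with or without 10 ng/mL doxycycline in hormone-depleted medium. Test compounds are applied for 72 hours. GI50 values derive from CellTiter-Glo 2.0 signal fitted by four-parameter regression.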
(In ATP-based viability assays light output follows the ATP content of the culture.)

The target in another assay is T1, androgen receptor (Homo sapiens, UniProt P10275).
T1 sequence (P10275 1-920 T878A): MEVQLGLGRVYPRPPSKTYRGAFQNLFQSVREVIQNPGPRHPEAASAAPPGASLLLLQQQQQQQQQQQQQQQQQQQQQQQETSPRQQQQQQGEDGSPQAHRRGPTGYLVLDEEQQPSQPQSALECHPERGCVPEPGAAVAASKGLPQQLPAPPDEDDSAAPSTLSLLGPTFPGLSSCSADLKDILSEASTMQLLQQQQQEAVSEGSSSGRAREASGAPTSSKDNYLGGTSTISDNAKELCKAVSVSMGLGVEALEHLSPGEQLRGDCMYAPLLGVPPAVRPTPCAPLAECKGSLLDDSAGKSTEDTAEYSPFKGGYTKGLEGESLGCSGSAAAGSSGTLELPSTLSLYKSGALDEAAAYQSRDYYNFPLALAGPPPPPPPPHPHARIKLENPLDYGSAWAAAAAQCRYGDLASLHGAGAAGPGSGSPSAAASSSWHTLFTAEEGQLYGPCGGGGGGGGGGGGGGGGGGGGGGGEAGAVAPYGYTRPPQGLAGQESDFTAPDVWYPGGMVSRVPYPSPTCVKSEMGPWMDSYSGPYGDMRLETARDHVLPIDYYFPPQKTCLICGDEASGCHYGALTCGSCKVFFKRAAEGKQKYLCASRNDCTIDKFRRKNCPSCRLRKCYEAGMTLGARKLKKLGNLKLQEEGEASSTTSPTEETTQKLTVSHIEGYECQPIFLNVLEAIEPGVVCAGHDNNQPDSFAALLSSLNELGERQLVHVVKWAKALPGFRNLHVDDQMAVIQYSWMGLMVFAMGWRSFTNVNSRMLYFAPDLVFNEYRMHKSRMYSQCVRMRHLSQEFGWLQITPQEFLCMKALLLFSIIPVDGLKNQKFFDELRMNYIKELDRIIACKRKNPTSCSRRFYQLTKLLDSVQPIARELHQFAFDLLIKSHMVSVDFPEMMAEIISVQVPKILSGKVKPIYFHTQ
The assay is described as follows: Assay for binding affinity to androgen receptor ([3H]methyltrienolone radioligand, cell cytosol). The conditions noted are these: binding to the androgen receptor, Table 3. Here is the method:
Fractions of cell cytosol ([…]) were incubated for 24 hr at 4° C. with 1 nM [^3H]methyltrienolone in the absence or presence of the test compound in a buffer containing 25 mM Hepes-Tris (pH 7.4), 1 mM EDTA, 10 mM Na2MoO4, 2 mM DTT, 5 μM triamcinolone acetonide, and 10% glycerol. Nonspecific binding was determined in the presence of […] testosterone. Following incubation, the samples were filtered rapidly under vacuum through glass fiber filters (GF/B, Packard) presoaked with 0.3% PEI and rinsed several times with ice-cold 50 mM Tris-HCl using a 96-sample cell harvester (Unifilter, Packard). The filters were dried then counted for radioactivity in a scintillation counter (Topcount, Packard) using a scintillation cocktail (Microscint 0, Packard). The results are expressed as a percent inhibition of the control radioligand specific binding. The standard reference compound is testosterone, which is tested in each experiment at several concentrations to obtain a competition curve from which its IC50 is calculated.

Where only a bound is given, the exact number is not on record here.

`Cc1sc2c(c1C)C(c1ccc(Cl)cc1)=N[C@@H](CC(=O)NCCOC1CCN(c3ccc(C(=O)N[C@H]4CC[C@H](Oc5ccc(C#N)c(Cl)c5)CC4)nn3)CC1)c1nnc(C)n1-2` [I-1, N-[4-(3-chloro-4-cyano-phenoxy)cyclohexyl]-6-[4-[2-[[2-[(9S)-7-(4-chlorophenyl)-4,5,13-trimethyl-3-thia-1,8,11,12-tetrazatricyclo[8.3.0.0^2,6]trideca-2(6),4,7,10,12-pentaen-9-yl]acetyl]amino]ethoxy]-1-piperidyl]pyridazine-3-carboxamide] yielded a GI50 in assay [1] of 500 to 1500 nM. Moreover, the Kd on androgen receptor is less than 50 nM.
Compound `Cc1sc2c(c1C)C(c1ccc(Cl)cc1)=N[C@@H](CC(=O)NCCOCCOCCOC1CCN(c3ccc(C(=O)N[C@H]4CC[C@H](Oc5ccc(C#N)c(Cl)c5)CC4)nn3)CC1)c1nnc(C)n1-2` [I-2, N-[4-(3-chloro-4-cyano-phenoxy)cyclohexyl]-6-[4-[2-[2-[2-[[2-[(9S)-7-(4-chlorophenyl)-4,5,13-trimethyl-3-thia-1,8,11,12-tetrazatricyclo[8.3.0.0^2,6]trideca-2(6),4,7,10,12-pentaen-9-yl]acetyl]amino]ethoxy]ethoxy]ethoxy]-1-piperidyl]pyridazine-3-carboxamide] displayed a GI50 in assay [1] of 500 to 1500 nM. At androgen receptor, this compound displayed a Kd of less than 50 nM.
The like results for `CCNC(=O)C[C@@H]1N=C(c2ccc(OCCOC3CCN(c4ccc(C(=O)N[C@H]5CC[C@H](Oc6ccc(C#N)c(Cl)c6)CC5)nn4)CC3)cc2)c2c(sc(C)c2C)-n2c(C)nnc21` [I-8] were, in that order, less than 500 nM and less than 50 nM.
The corresponding values for `CCNC(=O)C[C@@H]1N=C(c2ccc(OCCOCCOC3CCN(c4ccc(C(=O)N[C@H]5CC[C@H](Oc6ccc(C#N)c(Cl)c6)CC5)nn4)CC3)cc2)c2c(sc(C)c2C)-n2c(C)nnc21` [I-10] are 500 to 1500 nM and less than 50 nM.
`CCNC(=O)C[C@@H]1N=C(c2ccc(CCCOC3CCN(c4ccc(C(=O)N[C@H]5CC[C@H](Oc6ccc(C#N)c(Cl)c6)CC5)nn4)CC3)cc2)c2c(sc(C)c2C)-n2c(C)nnc21` [I-17]: the GI50 in assay [1] was less than 500 nM.
In turn, `CCNC(=O)C[C@@H]1N=C(c2ccc(CC3CCN(c4ccc(C(=O)N[C@H]5CC[C@H](Oc6ccc(C#N)c(Cl)c6)CC5)nn4)CC3)cc2)c2c(sc(C)c2C)-n2c(C)nnc21` [I-20] showed a GI50 in assay [1] of less than 500 nM. For the same compound, the Kd on androgen receptor was less than 50 nM.
The corresponding values for `CCNC(=O)C[C@@H]1N=C(c2ccc(N3CC4(C3)CN(c3ccc(C(=O)N[C@H]5CC[C@H](Oc6ccc(C#N)c(Cl)c6)CC5)nn3)C4)cc2)c2c(sc(C)c2C)-n2c(C)nnc21` [I-24] are 500 to 1500 nM and less than 50 nM.
The like results for `CCNC(=O)C[C@@H]1N=C(c2ccc(OCC3CN(c4ccc(C(=O)N[C@H]5CC[C@H](Oc6ccc(C#N)c(Cl)c6)CC5)nn4)C3)cc2)c2c(sc(C)c2C)-n2c(C)nnc21` [I-29] were, in that order, 500 to 1500 nM and less than 50 nM.
The corresponding values for `CCNC(=O)C[C@@H]1N=C(c2ccc(N3CCC(OC4CCN(c5ccc(C(=O)N[C@H]6CC[C@H](Oc7ccc(C#N)c(Cl)c7)CC6)nn5)CC4)CC3)cc2)c2c(sc(C)c2C)-n2c(C)nnc21` [I-44] are 500 to 1500 nM and less than 50 nM.
The compound `CCNC(=O)C[C@@H]1N=C(c2ccc(OCCCN(C)c3ccc(C(=O)N[C@H]4CC[C@H](Oc5ccc(C#N)c(Cl)c5)CC4)nn3)cc2)c2c(sc(C)c2C)-n2c(C)nnc21` [I-48] gave a GI50 in assay [1] of 500 to 1500 nM. This compound yielded a Kd on androgen receptor of less than 50 nM.

In general, GI50 refers to the concentration that inhibits growth by half. Read a low GI50 as greater sensitivity of the cells. As a reminder, the Kd is a measure of binding affinity in units of concentration. High values mean weaker binding, low ones tighter binding.

These data come from patent US20260109707A1, “HETEROBIFUNCTIONAL COMPOUNDS AND METHODS OF TREATING DISEASE” (Halda Therapeutics OpCo. Inc., priority 2022, published 2026).
